How the values were obtained:
[1] = system: Human NCI-H460 lung carcinoma tumor xenograft; assay: Xenograft model antitumor assay, NCI-H460; format: in vivo, nude mice; details: 40 mg/Kg/day; for inhibition of NCI-460 tumor growth: nude mice (FIG. 5A); for NCI-460 tumor growth: nude mice (FIGS. 3A to 3C)
Method: (§1) For tumor cell inoculation in nude mice, U-87 MG or NCI-H460 cells were harvested by trypsinization using a trypsin/EDTA solution. Cells were washed two times with phosphate-buffered saline Ca^2+—Mg^2+ free (PBS-CMF) and centrifuged. The resulting pellet was resuspended in 1% methyl-cellulose in serum-free EMEM at a concentration of 2.5×10^6 cells per 100 μL. Specific pathogen-free, female Crl:CD-1®-nuBR nude mice were anesthetized by O2/isoflurane inhalation and tumors were established by subcutaneous injection of 100 μL from cell suspension into the right flank. Tumors were measured in O2/isoflurane anesthetized mice twice a week using a digital caliper and tumor volume was calculated as: π/6×length×width^2. When the first mouse from control group held a tumor reaching 1000 mm^3, tumors were photographed and mice from every group were sacrificed. Experiments were performed on 8 animals for each group. Recombinant sMTf treatment toxicity was evaluated by monitoring the body weight of control and treated mice, considering that a weight loss>20% results in a toxic effect.

[2] = system: Human U87 glioblastoma tumor xenograft; assay: Xenograft model antitumor assay, U87; format: in vivo, nude mice; details: 40 mg/Kg/day; for inhibition of U87 tumor growth: nude mice (FIG. 5B); for U87 tumor growth: nude mice (FIGS. 4A and 4B)
Method: as §1

[3] = system: in vivo neovascularisation induced by the growth factors FGF-2 and VEGF; assay: Matrigel plug angiogenesis assay; details: induced by FGF-2 and VEGF, nude mice, 7 days (FIG. 7)
Method: Angiogenesis is considered to be indicated by the growth of blood vessels from subcutaneous tissue into a solid piece of Matrigel™. Specific pathogen-free, female Crl:CD-1®-nuBR nude mice were obtained from Charles River Laboratories (Lasalle, QC). All of the mice used were 5-10 weeks of age. Prior to injection, heparin was incubated with or without bFGF (250 ng/mL) and VEGF165 (200 ng/mL) for 5 min, then 1 mL of MEM was added and the mixture diluted into phenol red-free Matrigel™ on ice for a final concentration of 12.4 μg/mL heparin. Then, specific pathogen-free, female Crl:CD-1®-nuBR nude mice were subcutaneously injected under anesthesia in the right flank with 0.5 mL of Matrigel™ alone or with Matrigel™ containing bFGF and VEGF. After 7 days, mice were sacrificed and Matrigel™ implants were harvested, washed with PBS and photographed. The remaining implants were immediately frozen and lyophilized overnight in order to evaluate the hemoglobin (Hb) concentrations. Testing of anti-angiogenic substances was initiated at the time of Matrigel™ implantation. Samples were then crushed and resuspended in 0.1% Triton™ X-100. Samples were mixed frequently for 1 h and centrifuged at 12,000×g for 15 min to remove particles. The concentration of hemoglobin (Hb) in the supernatant was then determined directly by measuring the absorbance at 405 nm and compared with a standard curve of purified Hb Hemoglobin content was expressed in μg Hb/mg of dried sample.

[4] = system: HMEC-1 endothelial cells; assay: In vitro cell migration, HMEC-1 (Transwell / modified Boyden chambers); format: cell-based; details: various concentrations, dose-dependent manner (FIG. 2C)
Method: (§2) HMEC-1 and NCI-H460 cell migration was performed using Transwell filters (8 μm pore size) pre-coated with 0.15% gelatin for 2 hours at 37° C. or overnight at 4° C. The Transwell filters were washed once with PBS and assembled in 24-well plates. To study the effect of sMTf-derived peptides on cell migration, the lower chambers were filled with 300 μL of serum-free cell culture medium with or without various concentrations of peptides (2×). […] Approximately 50 000 cells (HMEC-1) and 100 000 cells (NCI-H460) were resuspended in 100 μL of serum free medium and added into the upper chamber of each Transwell. Then, 400 μL of serum free medium were added into the lower chamber with or without various concentrations of peptides (2×). After 1 hour incubation, 300 μL of cell culture medium containing 20% serum were added in the lower chamber to stimulate cell migration (final peptide concentration 1×). The plates were then placed at 37° C. in 5% CO2195% air for 4 hours (HMEC-1) or 18 hours (NCI-H460). Cells that had migrated to the lower surface of the filters were fixed for 30 minutes with 10% formalin, stained 30 minutes with 0.1% crystal violet/20% MeOH, and washed twice with PBS. […] The cell migration was quantified in four fields per filters at 50× magnification using microscopy computer-assisted imaging (Northern Eclipse™ software). Results are expressed as a percentage of cell migration of treated cells compared to untreated cells.

[5] = system: NCI-H460 pulmonary carcinoma cells; assay: In vitro cell migration, NCI-H460 (Transwell / modified Boyden chambers); format: cell-based, human; details: various concentrations, dose-dependent manner (FIG. 2D)
Method: as §2

[6] = biological target: plasminogen activation by urokinase-type plasminogen activator (uPA) (Homo sapiens, UniProt P00749); assay: In vitro plasminogen activation by uPA (colorimetric VLK-pNA assay); format: biochemical; details: various concentrations of peptide (FIG. 1B)
Method: The in vitro enzymatic activity of uPA was measured using a colorimetric assay. To study the effect of sMTf-derived peptides on plasminogen activation by uPA, the reaction was performed in plasminogen activation buffer (50 mM Tris/HCl (pH 7.5), 150 mM NaCl and 50 mM CaCl2) in a final volume of 200 μL. This incubation medium also contained 30 nM plasminogen and 15 μg of the chromogenic plasmin substrate D-Val-Leu-Lys p-nitroanilide (VLK-pNA). The reaction was started by the addition of 1 ng of uPA. In this assay, the cleavage of VLK-pNA results in a p-nitroaniline molecule that absorbs at 405 nm. The reaction product was monitored at 37° C. during 3 hours every 2 minutes using a Microplate Thermomax™ Autoreader. The velocity of the VLK-pNA hydrolysis reaction was calculated and results are expressed in mAU/min.

[7] = system: NCI-H460 pulmonary carcinoma cells; details: up to 50 μM, 24 hours incubation (FIG. 6)
Method: (§3) sMTf-derived peptides cellular toxicity on HMEC-1 and NCI-H460 were performed using [methyl-^3H]-thymidine incorporation assay. […] Approximately 5000 cells (HMEC-1 and NCI-H460) were resuspended with 200 μL of fresh culture medium, seeded into white 96-wells plate and placed at 37° C. in 5% CO2/95% air. After 24 hours, the medium was removed and 200 μL of serum-free cell culture medium was added to synchronize the cells. After another 24 hours, the medium was removed and 200 μL of fresh complete medium with or without various peptide concentrations were added. After 24 hours incubation with the peptides, the medium was remove and 200 μL (0.5 μCi) of [methyl-^3H]-thymidine was added and placed at 37° C. in 5% CO2/95% air for 4 hours. Then, the wells were gently washed twice with PBS at 37° C., incubated with 200 μL of EtOH:Acetic acid (3:1) for 10 minutes and dried under the hood. 50 μL of Microscint™-O was added per well, the plate was sealed, agitated for 3 minutes, and read on the microplate scintillation and luminescence counter (TopCount NXT, Packard). Results are expressed as a percentage of cell viability of treated cells compared to untreated cells.

[8] = system: HMEC-1 endothelial cells; details: up to 50 μM, 24 hours incubation (FIG. 6)
Method: as §3

| Substance | inhibition of NCI-460 tumor growth [1] [%] | NCI-460 tumor growth [1] | inhibition of U87 tumor growth [2] [%] | U87 tumor growth [2] | in vivo neovascularisation of Matrigel implant (hemoglobin content) [3] | migration of HMEC-1 cells [4] | migration of NCI-H460 cells [5] | plasminogen cleavage by uPA [6] | cellular toxicity on NCI-H460 cells [7] | cellular toxicity on HMEC-1 cells [8] |
| --- | --- | --- | --- | --- | --- | --- | --- | --- | --- | --- |
| Ac-F-R-C-L-V-E-N-A-G-D-V-A-F-V-R-H-K-K-K-NH2 (Ac-FRCLVENAGDVAFVRHKKK-NH2) [SEQ ID NO: 5] | 45 | inhibit NCI-460 tumor growth | 39 | inhibit U87 tumor growth | inhibit in vivo neovascularisation | – | – | – | – | – |
| Ac-F-R-C-L-V-E-N-R-G-D-V-P-F-V-K-R-E-R-F-NH2 (Ac-FRCLVENRGDVPFVKRERF-NH2) [SEQ ID NO: 13] | – | – | – | – | inhibit in vivo neovascularisation | inhibit the migration | inhibit the migration | – | – | – |
| Ac-FRCLVENAGDVAFVRH-NH2 [SEQ ID NO: 2, Ac-F-R-C-L-V-E-N-A-G-D-V-A-F-V-R-H-NH2] | – | – | – | – | – | inhibit the migration | inhibit the migration | stimulates plasminogen cleavage by uPA in a dose-dependent manner | do not demonstrate any cellular toxicity | do not demonstrate any cellular toxicity |
| Ac-YSGAFRMLAEGAGDVAFVKHKKK-NH2 (Ac-YSGAFRMLAEGAGDVAFVKHKKK-NH2) [SEQ ID NO: 9] | 42 | inhibit NCI-460 tumor growth | – | – | inhibit in vivo neovascularisation | – | – | – | – | – |
| Ac-F-R-C-L-V-E-N-R-G-D-V-P-F-V-T-R-I-R-NH2 (Ac-FRCLVENRGDVPFVTRIR-NH2) [SEQ ID NO: 15] | 37 | – | 74 | inhibit U87 tumor growth | inhibit in vivo neovascularisation | inhibit the migration | inhibit the migration | – | – | – |
| SEQ ID NO: 10: sMTf-derived peptide; sequence shown only as a drawing in Table II (FRCLVENAGDVAFVRHKKKKKKKHRVFAVDGANEVLCRF) | 69 | inhibit NCI-460 tumor growth | – | – | – | – | – | – | – | – |
| Ac-F-R-C-L-V-E-N-A-G-D-V-P-F-V-R-H-NH2 (Ac-FRCLVENAGDVPFVRH-NH2) [SEQ ID NO: 7] | – | – | – | – | inhibit in vivo neovascularisation | – | – | – | – | – |
